Assays:
[1] = system: histone H3 acetylation in HIG-82 synoviocytes; assay: Western blot of acetyl histone H3, HIG-82 cells; format: cell-based, rabbit; settings: 3 μM MPT0G009 or 60 μM SAHA, 6, 12 or 24 h, starting at 6 h
[2] = system: HDACs in human RA fibroblast-like synoviocytes; assay: HDAC activity assay of cell lysates (RA-FLS); format: cell-based
Description: We have synthesized 1-arylsulfonyl-5-(N-hydroxyacrylamide) indolines derivative HDAC inhibitors. […] In this study, we evaluated the anti-arthritic effects of MPT0G009 in vitro and in an in vivo model and determined the pharmacokinetics and its maximum tolerated dose (MTD).
Colorimetric HDAC activity kits were used to assay HDAC activity in cell lysates according to the manufacturer's instructions.

[3] = system: CD51/61 on RAW264.7 cells; assay: Osteoclast-specific marker CD51/61 by flow cytometry; settings: RAW264.7, M-CSF/RANKL; 5 nM MPT0G009 or 50 nM SAHA
Experimental: Subsequently, multinucleate tartrate-resistant acid phosphatase (TRAP)-positive cells were counted.
Cells were then TRAP stained, and the numbers of TRAP-positive multinuclear cells were counted. […] Images are at × 100 magnification, and the arrows indicate differentiated osteoclasts.
Cells were then TRAP stained, and the numbers of TRAP-positive multinuclear cells were counted (d) or were incubated with a FITC-conjugated anti-CD51/61 antibody and analyzed by flow cytometry (e).
After three washes with FACS washing buffer, the fluorescence of the cells was analyzed on a FACScan flow cytometer (BD Biosciences).

[4] = system: NF-κB in RAW264.7 cells; assay: NF-κB luciferase reporter gene assay, RANKL-induced; format: cell-based, mouse; settings: RAW264.7, 5 nM, RANKL 50 ng/ml 24 h
Experimental: (§1) We also assessed the effect of MTP0G009 on the DNA-binding activity of NF-κB and NFATc1, two pivotal transcriptional factors involved in RANKL-induced pathways for promoting osteoclast differentiation.[14], [15] When RAW264.7 cells that had been transiently transfected with reporter plasmids were treated with 5 nM MPT0G009 for 30 min before and during 24-h stimulation with RANKL, MPT0G009 inhibited RANKL-induced NF-κB (Figure 3d) and NFATc1 (Figure 3e) luciferase activity.
(§2) RAW264.7 cells or RA-FLSs were seeded 1 day before transfection. […] For the reporter gene assay, 100 μl of reporter lysis buffer (Promega Corp.) was added, then the cells were scraped off the dishes, centrifuged at 17 000 g for 30 s at 4 °C and the supernatants collected. Aliquots of cell lysates (20 μl) were placed in the wells of an opaque black 96-well microtiter plate, then 40 μl of luciferase substrate (Promega Corp.) was added and the luminescence immediately measured in a microplate luminometer (Beckman Coulter, Krefeld, Germany).

[5] = target: T1, recombinant HDAC4 (Homo sapiens, UniProt P56524); assay: Fluorogenic assay kit, recombinant HDAC4 enzyme activity; format: biochemical; settings: three replicate experiments; read-out: IC50 (nM) of HDAC isoforms enzyme, HDAC4
T1 construct: purchased BPS Bioscience Corp. (San Diego, CA, USA)
Description: (§3) Using kits that contained different recombinant HDAC isoforms, we evaluated the ability of MPT0G009 to inhibit HDAC-mediated deacetylation of lysine residues on the substrates that were provided. […] Fluorogenic HDAC assay kits were used to assess the ability of HDAC inhibitors to inhibit deacetylation of lysine residues on the substrate by recombinant HDAC1, 2, 3, 4, 6 or 8 according to the manufacturer's instructions.

[6] = system: rat AIA model; assay: In vivo adjuvant-induced arthritis (AIA) model
Experimental: Next, we evaluated the in vivo anti-arthritic effects of MPT0G009 in a rat AIA model. […] The inhibition of synoviocytes proliferation and inflammation by MPT0G009 treatment was also observed (Supplementary Figure 1).
Figure 5 MPT0G009 inhibits the development of arthritis in an AIA model. […] Subsequently, swelling of both hind paws was photographed. (b) Hind paw volumes in the indicated group of rats were measured using a digital plethysmometer on the indicated day after AIA induction. (c) Arthritis scores on day 21. (d) Serum levels of interleukin (IL)-1β (left panel) and IL-6 (right panel) on day 21 as measured by enzyme-linked immunosorbent assay (ELISA). (e) Top five rows: photomicrographs of ankle joint sections from the different groups stained with hematoxylin and eosin, safranin O, immunohistochemically stained with an anti-acetyl H3 antibody or TRAP stain. Arrows indicate osteoblasts (OB); arrowheads indicate osteoclasts (OC). Bottom panels: micro-CT results (arrows indicate bone erosion). (f) The BMD (in mg/mm^3) and the BMC (in mg) values for the bone tissue of the tarsus were analyzed using CT Analysis Software.
Five-week-old male Lewis rats were obtained from the National Laboratory Animal Center (Taipei, Taiwan). Complete Freund's adjuvant (CFA) was prepared by suspending heat-killed Mycobacterium butyricum (Difco, Sparks, MD, USA) in mineral oil at 3 mg/ml. CFA-induced arthritis was induced by intradermal injection of 100 μl of the CFA emulsion into the base of the right hind paw on day 0. […] On days 0, 2, 6, 9, 13, 17 and 21, the animals were weighed and both hind paw volumes measured using a digital plethysmometer (Diagnostic & Research Instruments Co. Ltd, Taipei, Taiwan). On day 21, micro-CT of the paws was performed by the Core Facilities Center of the National Research Program for Biopharmaceuticals using an in vivo micro-CT scanner (Skyscan 1176, Bruker Corp., Kontich, Belgium) at 18 μm resolution and 180° scanning with a rotation step of 0.8° per image, 300 ms integration time, 70 keV photon energy and 350 μA current. The reconstructed volumes from micro-CT scans were analyzed by CT Analysis Software (CTAn, Bruker Corp.). Quantification of volumetric BMD and bone volume (BV) was performed in a defined bone area ranging 12 mm from tarsals to the end of the calcaneus. The BMC was described by the product of BV and BMD. On day 21, the rats were killed and specimens from the phalanges and ankle joints stained with hematoxylin–eosin or safranin O for histopathological assessment by the National Laboratory Animal Center. Intensity of arthritis was scored as described previously from 0 to 4.[19] All four legs were scored, so the highest possible arthritic score was 16.

[7] = system: NFATc1 in RAW264.7 cells; assay: NFAT luciferase reporter gene assay, RANKL-induced; format: cell-based, mouse; settings: RAW264.7, 5 nM, RANKL 50 ng/ml 24 h
Experimental: as §1, §2

[8] = target: T2, recombinant HDAC3 (Homo sapiens, UniProt O15379); assay: Fluorogenic assay kit, recombinant HDAC3 enzyme activity; format: biochemical; settings: mean±S.E.M., three replicate experiments; read-out: IC50 (nM) of HDAC isoforms enzyme, HDAC3
T2 construct: purchased BPS Bioscience Corp. (San Diego, CA, USA)
Description: as §3

[9] = system: RA-FLS; assay: Cell cycle distribution by propidium iodide flow cytometry; format: cell-based, human; settings: RA-FLS 24 h, MPT0G009 1–1000 nM, SAHA 3–3000 nM
[10] = system: RAW264.7 cells; assay: Inflammatory mediator production by LPS-stimulated RAW264.7 cells; format: cell-based, mouse; settings: RAW264.7, LPS 25 ng/ml 24 h; MPT0G009 0.1, 1 or 10 μM; SAHA 0.3, 3 or 30 μM
Experimental: (a) Structure of MPT0G009.
These supernatants were then assayed for prostaglandin E2 (PGE2), NO and IL-6.

[11] = day 21, ELISA, MPT0G009 25 mg/kg, SAHA 200 mg/kg, indomethacin 1 mg/kg
[12] = oral daily days 2 to 21, MPT0G009 25 mg/kg, SAHA 200 mg/kg, indomethacin 1 mg/kg, vs vehicle

T1 sequence (P56524 627-1084 limits assumed): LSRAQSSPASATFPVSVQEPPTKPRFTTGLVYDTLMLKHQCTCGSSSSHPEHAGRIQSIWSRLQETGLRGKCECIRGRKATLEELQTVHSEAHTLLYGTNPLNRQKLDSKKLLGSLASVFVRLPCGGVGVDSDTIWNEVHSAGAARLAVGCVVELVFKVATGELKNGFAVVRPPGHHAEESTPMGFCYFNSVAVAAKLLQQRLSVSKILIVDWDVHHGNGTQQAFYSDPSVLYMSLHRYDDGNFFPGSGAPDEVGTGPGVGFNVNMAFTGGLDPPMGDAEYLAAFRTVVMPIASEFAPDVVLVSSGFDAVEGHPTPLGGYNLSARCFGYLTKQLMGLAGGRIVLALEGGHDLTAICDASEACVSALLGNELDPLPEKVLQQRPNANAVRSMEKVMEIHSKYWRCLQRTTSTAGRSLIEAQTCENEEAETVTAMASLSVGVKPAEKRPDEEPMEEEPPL
T2 sequence (O15379 whole entry, canonical isoform): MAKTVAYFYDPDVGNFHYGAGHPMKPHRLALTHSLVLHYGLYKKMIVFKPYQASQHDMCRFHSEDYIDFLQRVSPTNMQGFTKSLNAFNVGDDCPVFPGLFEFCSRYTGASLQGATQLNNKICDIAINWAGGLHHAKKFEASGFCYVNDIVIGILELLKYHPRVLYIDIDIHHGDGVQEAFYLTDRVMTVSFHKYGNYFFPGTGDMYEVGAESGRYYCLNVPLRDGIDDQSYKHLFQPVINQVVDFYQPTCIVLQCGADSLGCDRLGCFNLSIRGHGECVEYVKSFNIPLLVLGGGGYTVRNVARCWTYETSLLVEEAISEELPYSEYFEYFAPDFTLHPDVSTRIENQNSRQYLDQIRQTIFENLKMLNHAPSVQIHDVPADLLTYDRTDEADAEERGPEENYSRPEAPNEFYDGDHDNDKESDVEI
T2 sequence (Q9Y618 395-489 partner limits assumed): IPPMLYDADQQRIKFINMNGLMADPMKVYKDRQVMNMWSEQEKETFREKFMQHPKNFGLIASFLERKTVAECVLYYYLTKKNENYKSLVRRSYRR

COc1ccc(S(=O)(=O)N2CCc3cc(C=CC(=O)NO)ccc32)cc1 [MPT0G009, 3-[1-(4-methoxybenzenesulfonyl)-2,3-dihydro-1H-indol-5-yl]-N-hydroxyacrylamide]
acetylation of histone H3 (Acetyl-H3) [1]: significant hyperacetylation | potency relative to SAHA on HDACs inhibition [2]: > 10 times | expression of the osteoclast-specific marker (CD51/61) [3]: significantly inhibited | RANKL-induced NF-κB luciferase activity [4]: inhibited | IC50 [5]: > 10000 nM | cartilage degradation (safranin O staining of ankle joints) ([6]; 25 mg/kg): markedly reduced | formation of osteoclasts (TRAP stain) ([6]; 25 mg/kg): significantly decreased | leukocyte infiltration, synovitis (hematoxylin and eosin staining) ([6]; 25 mg/kg): significantly reduced | levels of acetyl-histone H3 (immunohistochemical staining) ([6]; 25 mg/kg): increased levels | bone destruction (micro-CT) ([6]; 25 mg/kg, day 21): ameliorated | bone mineral content (BMC) ([6]; 25 mg/kg, tarsus, micro-CT): prevented the decrease | bone mineral density (BMD) ([6]; 25 mg/kg, tarsus, micro-CT): prevented the decrease | serum levels of IL-1β [6, 11]: significant decreases | serum levels of IL-6 [6, 11]: significant decreases | arthritis scores ([6]; day 21, MPT0G009 25 mg/kg, SAHA 200 mg/kg, indomethacin 1 mg/kg, vs vehicle): significant reductions | paw swelling [6, 12]: significant reductions | paw volume [6, 12]: significant reductions | RANKL-induced NFATc1 luciferase activity [7]: inhibited | IC50 [8]: 1.91 ± 0.22 nM | subG1 peak (cellular apoptosis) [9]: did not increase the subG1 peak | cell cycle arrest ([9]; all concentrations): G0/G1 phase arrest | NO production [10]: inhibited | PGE2 production [10]: inhibited

Source: paper PMC5424110, “Preclinical anti-arthritic study and pharmacokinetic properties of a potent histone deacetylase inhibitor MPT0G009” (Cell Death & Disease, 2014)
